Measured values: ChEMBL document CHEMBL1159014, “Isolation of potential cancer chemopreventive agents from Eriodictyon californicum” (1992)

Key:
[1] = Chemopreventive activity in Syrian hamster embryo cells assessed as inhibition of metabolism of [3H]benzo(a)pyrene to water-soluble metabolites after 24 hrs at 20 ug/ml relative to control; assay type: functional; conditions: Mesocricetus auratus, read-out: INH
[2] = Chemopreventive activity in Syrian hamster embryo cells assessed as inhibition of metabolism of [3H]benzo(a)pyrene to water-soluble metabolites after 24 hrs at 5 ug/ml relative to control; assay type: functional; conditions: Mesocricetus auratus, read-out: INH
[3] = Chemopreventive activity in Syrian hamster embryo cells assessed as inhibition of metabolism of [3H]benzo(a)pyrene to water-soluble metabolites after 24 hrs at 10 ug/ml relative to control; assay type: functional; conditions: Mesocricetus auratus, read-out: INH
Mesocricetus auratus = organism: Mesocricetus auratus; assay: Chemopreventive activity in Syrian hamster embryo cells assessed as inhibition of [3H]benzo(a)pyrene-DNA binding at 10 ug/ml by [35S]phosphorothote post-labeling-HPLC; assay type: functional
[4] = Chemopreventive activity in Syrian hamster embryo cells assessed as pmol of (+)-anti-benzo(a)pyrene-7,8-diol-9,10-epoxide -dGuo adduct per mg of DNA at 10 ug/ml by [35S]phosphorothote post-labeling-HPLC; assay type: functional, Mesocricetus auratus
[5] = Chemopreventive activity in Syrian hamster embryo cells assessed as pmol of [3H]benzo(a)pyrene binding per mg of DNA at 10 ug/ml by [35S]phosphorothote post-labeling-HPLC; assay type: functional, Mesocricetus auratus

Compound | inhibition at 20 µg/mL [1] [%] | inhibition at 5 µg/mL [2] [%] | inhibition at 10 µg/mL [3] [%] | inhibition (Mesocricetus auratus) [%] | Activity [4] [pmol] | Activity [5] [pmol]
COc1cc([C@@H]2CC(=O)c3c(O)cc(O)cc3O2)ccc1OC(=O)C(C)C | 52 |  |  |  |  | 
COc1cc(O)c2c(c1)O[C@H](c1ccc(O)cc1)CC2=O [SAKURANETIN] | 52 |  |  |  |  | 
O=C1C[C@@H](c2ccccc2)Oc2cc(O)cc(O)c21 [PINOCEMBRIN] | 66 | 8 | 29 |  |  | 
COc1cc(C2CC(=O)c3c(cc(O)c(OC)c3O)O2)ccc1O (stereo unspecified) | 32 | 9 | 19 |  |  | 
O=c1cc(-c2ccccc2)oc2cc(O)cc(O)c12 [CHRYSIN] | 86 | 14 | 44 |  |  | 
COc1cc2oc(-c3ccc(O)cc3)cc(=O)c2c(O)c1OC [CIRSIMARITIN] | 92 | 69 | 85 | 71 | 11.5 | 19.4
O=C1C[C@@H](c2ccc(O)c(O)c2)Oc2cc(O)cc(O)c21 [ERIODICTYOL] | 55 | 16 | 40 |  |  | 
COc1c(O)cc2oc(-c3ccc(O)cc3)cc(=O)c2c1O [HISPIDULIN] | 92 | 18 | 75 |  |  | 
COc1cc([C@@H]2CC(=O)c3c(O)cc(O)cc3O2)ccc1O [HOMOERIODICTYOL] | 36 |  |  |  |  | 
COc1cc2c(c(O)c1OC)C(=O)CC(c1ccc(O)cc1)O2 (stereo unspecified) | 36 |  |  |  |  | 
COc1cc(-c2cc(=O)c3c(O)cc(O)cc3o2)ccc1O [CHRYSOERIOL] | 96 | 60 | 85 | 32 | 22.5 | 44.9
